Measurements from patent US11780868B1, “Homoleptic metal coordination complexes as antifungal agents” (King Abdulaziz University, priority 2023, dated 2023).

Legend:
[1] = system: horse red blood cells; assay: Haemolytic activity; assay type: cell-based; conditions: horse RBC
Description: To determine the cytotoxicity of C1, horse red blood cells (H-RBC; NHLS, Johannesburg, South Africa) were used. The horse blood was centrifuged, and the cell pellet was secured and washed three times with cold PBS. The final pellet was dissolved in cold PBS to make a 10% H-RBC solution. From this solution, 15 mL of 1% H-RBC solution was again prepared with the help of PBS. Then, 1 mL was aliquoted and added to various concentrations (0.5×MIC, 1×MIC, 2×MIC and 4×MIC) of C1 in 2 mL Eppendorf tubes. The negative control consisted of the RBC solution mixed with PBS; while the positive control consisted of RBC mixed with 1% Triton X-100. The samples were incubated for 4 h at 37° C. Following incubation, the samples were centrifuged at 2000 rpm for 10 minutes and supernatant (200 μL) was transferred to a flat-bottomed 96-well microtiter plate and the absorbance was measured at 450 nm using a SpectraMax ID3 Multimode Plate Reader (Molecular Devices, LLC., USA). The percentage of haemolysis was calculated by using the following equation: […]

[2] = system: Flz susceptible strains of C. albicans; assay: Broth microdilution MIC/MFC, range over strains; assay type: cell-based, Candida albicans
Description: (§1) In this work, nine strains of C. albicans procured from Charlotte Maxeke Johannesburg Academic Hospital under ethical clearance number M000402 were employed (Table 1). All the C. albicans strains were preserved at −70° C. deep freezer in 50% (v/v) anhydrous glycerol (Sigma-Aldrich St. Louis, MO, U.S.A.). For conducting experiments, cultures were revived in Sabouraud Dextrose broth (SDB; Merck, Germany) at 37° C. and 120 rpm for 24 h. Additionally, the RPMI 1640 medium and MOPS (Sigma-Aldrich, USA) were prepared as described by the Clinical and Laboratory Standards Institute (CLSI).
(§2) The activity of C1 against Candida species (n=9) was first estimated in terms of minimum inhibitory concentration (MIC) and minimum fungicidal concentration (MFC). […] Briefly, stock solutions of Flz (used as reference; Sigma-Aldrich St. Louis, MO, U.S.A.) and the synthesized compound was prepared in 1% dimethyl sulfoxide (DMSO; Sigma-Aldrich St. Louis, MO, U.S.A.) and the test concentrations were formulated in RPMI 1640-MOPS medium. […] Growth was quantified by reading the optical density at 620 nm in a UV-1800 SHIMADZU spectrophotometer (Shimadzu Corporation, Japan). The MIC was determined as the lowest concentration that inhibited the growth of Candida strains. […]

[3] = system: Flz resistant strains of C. albicans; assay: Broth microdilution MIC/MFC, range over strains; assay type: cell-based, Candida albicans
Description: as §1, §2

[4] = system: C. albicans 5112; assay: Cell cycle analysis (Muse cell analyser); assay type: cell-based, Candida albicans; conditions: 4 h
Description: (§3) The effect of C1 on the cell cycle of C. albicans 4251 and C. albicans 5112 was determined using Cell Cycle kit MCH100106 in a Guava® Muse® Cell Analyser according to the manufacturer's instructions. The cells of the C. albicans (1×10^6 cells/mL) were exposed to C1 for 4 h at different concentrations (0.5×MIC and 1×MIC). Each sample was rinsed with fresh PBS after exposure, and the pellet was fixed in 1 mL of 70% ice-cold ethanol (Sigma Aldrich Co., USA). The Cell Cycle assay was prepared by mixing the 100 μL of Luminex® Cell Cycle dye and 100 μL of the prewashed fixed cells and incubated in the dark for 30 minutes at room temperature. All samples were analysed by a Guava® Muse® Cell Analyser (Luminex® A DiaSorin Company, USA). During the experiment, both the negative (without treatment) and positive control (10 mM H2O2 treated) were used.

[5] = system: C. albicans 4251; assay: Cell cycle analysis (Muse cell analyser); assay type: cell-based, Candida albicans; conditions: 4 h
Description: as §3

Brc1ccc([O][Co][O]c2ccc(Br)cc2C=Nc2ccc3c(c2)OCCO3)c(C=Nc2ccc3c(c2)OCCO3)c1 [Complex C1, [Co(L)2]]
haemolytic activity (in words) [1]: considerably less haemolytic activity
haemolytic activity ([1]; 4×MIC, 4 h, 37° C.): 10%
MIC value range [2]: 1.22 to 4.88 µg/mL
MIC value range [3]: 9.76 to 19.53 µg/mL
cells in G0/G1 phase ([4]; C. albicans 5112 (Flz resistant), 0.5×MIC): 50.8%
cells in G0/G1 phase ([4]; C. albicans 5112, 1×MIC): 94.1%
cells in G0/G1 phase ([5]; C. albicans 4251 (Flz sensitive), 0.5×MIC): 62%
cells in G0/G1 phase ([5]; C. albicans 4251, 1×MIC): 96.55%
